The values below come from publication PMC6027464, “Separation, Identification, and Antidiabetic Activity of Catechin Isolated from Arbutus unedo L. Plant Roots” (Plants, 2018).

For this test, the target named is α-glucosidase. Put plainly: p-NPG hydrolysis assay with commercial enzyme (Sigma-Aldrich), absorbance at […] nm. The test is classed as biochemical.

With `Oc1cc(O)c2c(c1)O[C@H](c1ccc(O)c(O)c1)[C@@H](O)C2` [Catechin], the “α-Glucosidase Inhibitory Activity IC50 (μg/mL), ±SD” value is 87.55 ± 2.23 µg/mL.
